Assay results as given in ChEMBL document CHEMBL1133071, “Potent in vitro methicillin-resistant Staphylococcus aureus activity of 2-(1H-indol-3-yl)quinoline derivatives” (2000).
Values after ≈ are worked out from the molar mass of the structure shown.

Key:
Type in all cases: functional
[1] = system: Staphylococcus aureus; assay: Minimum inhibitory concentration against methicillin resistant staphylococcus aureus (MRSA)
[2] = system: Enterococcus faecium; assay: Minimum inhibitory concentration against vancomycin resistant Enterococcus faecium (VRE)
[3] = system: Staphylococcus aureus; assay: The compound was evaluated in vitro for minimum inhibitory concentration against staphylococcus aureus HP-5827
[4] = system: Staphylococcus aureus; assay: The compound was evaluated in vitro for minimum inhibitory concentration against staphylococcus aureus HP-5836

SMILES | MIC [1] [µg/mL] | MIC [2] [µg/mL] | MIC [3] [µg/mL] | MIC [4] [µg/mL]
Clc1ccc2ccc(-c3c[nH]c4ccc(Br)cc34)nc2c1 | 0.6 (≈ 1.68 µM) | > 25 | – | –
NCCNC(=O)c1cc(-c2c[nH]c3ccc(Br)cc23)nc2ccc(Cl)cc12.O=C(O)C(F)(F)F | 1.56 | 3.13 | – | –
Clc1ccc2c(Cl)cc(-c3c[nH]c4ccc(Br)cc34)nc2c1 | < 0.39 | 3.13 (≈ 7.98 µM) | – | –
Clc1ccc2nc(-c3c[nH]c4ccccc34)ccc2c1 | 5 (≈ 17.9 µM) | > 25 | – | –
Oc1ccc2[nH]cc(-c3ccc4cc(Cl)ccc4n3)c2c1 | 12.5 (≈ 42.4 µM) | > 25 | – | –
Clc1ccc2nc(-c3c[nH]c4c(Cl)cccc34)ccc2c1 | > 25 | > 25 | – | –
OCc1cc(-c2c[nH]c3ccc(Br)cc23)nc2cc(Cl)ccc12 | 0.31 (≈ 0.8 µM) | 2.5 (≈ 6.45 µM) | – | –
Clc1ccc2nc(-c3c[nH]c4ccc(Cl)cc34)ccc2c1 | 0.78 (≈ 2.49 µM) | > 25 | – | –
NCCNC(=O)c1cc(-c2c[nH]c3ccc(Br)cc23)nc2c(Cl)cccc12.O=C(O)C(F)(F)F | 1.56 | 3.13 | – | –
O=C(Oc1ccc2[nH]cc(-c3ccc4cc(Cl)ccc4n3)c2c1)c1ccccc1 | 1.56 (≈ 3.91 µM) | > 25 | – | –
NCCNC(=O)c1cc(-c2c[nH]c3ccc(Br)cc23)nc2cc(Cl)cc(Cl)c12.O=C(O)C(F)(F)F | 0.78 | 1.56 | – | –
NCCNC(=O)c1cc(-c2c[nH]c3ccc(Br)cc23)nc2cc(Cl)c(C#CCN3CCCCC3)cc12.O=C(O)C(F)(F)F | 3.13 | 6.25 | 1.56 | 3.13
NCc1cc(-c2c[nH]c3ccc(Br)cc23)nc2cc(Cl)ccc12.O=C(O)C(F)(F)F | 0.78 | 1.56 | 0.39 | 0.39
NCCNC(=O)c1cc(-c2c[nH]c3ccc(Br)cc23)nc2cc3c(cc12)OCO3.O=C(O)C(F)(F)F | 12.5 | – | – | –
Clc1ccc2nc(-c3c[nH]c4ccc(Br)cc34)ccc2c1 | 0.62 (≈ 1.73 µM) | > 25 | – | –
COc1ccc2[nH]cc(-c3ccc4cc(Cl)ccc4n3)c2c1 | > 25 | > 25 | – | –
NCCNC(=O)c1cc(-c2c[nH]c3ccc(Br)cc23)nc2ccccc12.O=C(O)C(F)(F)F | 12.5 | 25 | – | –
NCCNC(=O)c1cc(-c2c[nH]c3ccc(Br)cc23)nc2c(Cl)c(Cl)ccc12.O=C(O)C(F)(F)F | 0.78 | 0.78 | – | –
Fc1ccc2[nH]cc(-c3ccc4cc(Cl)ccc4n3)c2c1 | 0.78 (≈ 2.63 µM) | 12.5 (≈ 42.1 µM) | – | –
Fc1ccc2c(-c3ccc4cc(Cl)ccc4n3)c[nH]c2c1 | 1.56 (≈ 5.26 µM) | 6.25 (≈ 21.1 µM) | – | –
NCCNC(=O)c1cc(-c2c[nH]c3ccc(Br)cc23)nc2cc(Cl)ccc12.O=C(O)C(F)(F)F | 0.78 | 1.56 | 0.78 | 0.39
O=C(O)c1cc(-c2c[nH]c3ccc(Br)cc23)nc2cc(Cl)ccc12 | 25 (≈ 62.2 µM) | 25 (≈ 62.2 µM) | – | –
N#Cc1ccc2[nH]cc(-c3ccc4cc(Cl)ccc4n3)c2c1 | > 25 | > 25 | – | –
NCCNC(=O)c1cc(-c2c[nH]c3ccc(Br)cc23)nc2c(F)cccc12.O=C(O)C(F)(F)F | 6.25 | 12.5 | – | –
NCCNC(=O)c1cc(-c2c[nH]c3ccc(Br)cc23)nc2cc(F)ccc12.O=C(O)C(F)(F)F | 3.13 | 3.13 | – | –
Fc1cccc2[nH]cc(-c3ccc4cc(Cl)ccc4n3)c12 | > 25 | > 25 | – | –
